Data as given in article PMC3174355 (Journal of medicinal chemistry, 2011).

Biological target: Rat nNOS (Rattus norvegicus, UniProt P29476)
Test: NOS inhibition assay, Ki for rat nNOS
Format: biochemical

## Cc1cc(N)nc(C[C@@H]2CNC[C@@H]2OCCNCC(F)(F)c2cccc(Cl)c2)c1 [Compound 8a, 6-(((3R,4R)-4-(2-((2,2-Difluoro-2-(3-chlorophenyl)ethyl)amino)ethoxy)pyrrolidin-3-yl)methyl)-4-methylpyridin-2-amine]
8a vs 1b (m-chloro for m-fluoro)
  increase in nNOS potency: 1.3 fold

## Cc1cc(N)nc(C[C@@H]2CNC[C@@H]2OCCNCC(F)(F)c2ccccc2Cl)c1 [Compound 8b, 6-(((3R,4R)-4-(2-((2,2-Difluoro-2-(2-chlorophenyl)ethyl)amino)ethoxy)pyrrolidin-3-yl)methyl)-4-methylpyridin-2-amine]
8b vs 8a
  lower potency for rat nNOS: 2 fold
